Here are results for 16 compounds from EP4592276A1, “NOVEL ACY[…] OF PSILOCIN AND RELATED 4-HYDROXYT[…] BY AN EFFICIENT […] APPROACH” (Universität Heidelberg, priority 2024, dated 2025).

For one data set, the system named is HuH-7 cells. Description: Cell viability in HuH-7 cells (CellTiter-Blue). The data set is classed as cell-based, human. To be noted: for Cell Viability in HuH7 at 50 µM, 2 h Incubation / Cell Viability in HuH7 at 50 µM, 24 h Incubation: mean of triplicates ± standard deviation; for toxicity for HuH-7 cells: result in words. Here is the method: In order to assess cytotoxic effects of compounds in cell culture, HuH-7 cells were incubated in presence of these compounds in a 96-well plate for 2 h or 24 h. In order to generate a calibration curve for cell viability, a serial dilution (1:2 dilution series) of cells was seeded into control wells. Measurement of cell viability is based on the assay development using CellTiter-Blue reagent (Resazurin, blue color), which is reduced to resofurin (pink color) by viable cells.
Prior to performing the assay, a 96-well assay plate (F-bottom, transparent, Greiner) containing HuH-7 cells (20,000 cells per well) in culture medium was prepared. […] CellTiter-Blue reagent (1-2 mL) was diluted with cell culture medium (10 mL) in a Falcon tube and prewarmed to 37 °C. The 96-well plate was removed from the incubator, the medium aspirated using a vacuum pump and 100 µL of diluted CellTiter-Blue reagent was added to each well.

A short description of data set [1]: Passive membrane permeation assay (PAMPA). The data set is classed as in vitro ADME. To be noted: pre-coated PAMPA plate, PBS pH 7.4, 200 µM, 25 °C; for R (mass retention) / Pe: 5 h; for Papp at 5 h, 200 µM / Pe: mean ± standard deviation; for Papp at 5 h, 200 µM: read-out: Pe. The protocol:
The passive membrane permeability was evaluated with a pre-coated PAMPA plate system (BD Gentest, BD Bioscience, Germany) following the guidelines of the manufacturer and a previous literature report (cf. Kühl et al. Eur. J. Med. Chem. 2022, 240, 114585). Phosphate-buffered saline (PBS) pH 7.4 (Sigma-Aldrich, Germany) was used for all experiments. Analyte concentrations were determined on a Jasco HPLC system equipped with a UV detector and an RP-18 column (Chromolith® Performance RP-18e, 100x4.6 mm) using one of the gradients listed in Table 2. For all samples, the injection volume was 40 µl. Table 2: HPLC settings for the analysis of PAMPA samples.
Prior to performing the assay, the PAMPA plate was warmed to room temperature for 0.5 h. In the donor plate, 300 µL of the 200 µM compound solutions in PBS (4 % dimethyl sulfoxide (DMSO)) were dispensed in triplicate, and in the acceptor plate, 200 µL of PBS buffer were added to all wells. The plates were combined, and the system was incubated at 25 °C for 5 h. Upon completion of the incubation, donor and acceptor plate were separated. The wells were homogeneously mixed with a pipette, and a 100 µl sample of each donor and acceptor well was transferred to 96 well U-bottom polypropylene plates (Greiner Bio-One, Germany) for quantitative HPLC analysis.
In general terms: The PAMPA barrier holds no transporters, so it reflects passive diffusion.

Data set [2] can be described thus: Prodrug stability in human whole saliva. The format is in vitro ADME. To be noted: mean of fresh samples of three individuals, classified into three groups; for half-life at 50 µM: 37 °C. The protocol: Freshly collected saliva and 5 mM stock solutions of the analytes in DMSO were prewarmed to 37 °C for 10 min. Then, 700 µl prewarmed saliva was added to 7 µl of the prodrug stock, and the mixture was incubated at 37 °C. Samples (100 µL) were taken at selected time points (0, 10, 20, 40, 60 min; 2 h or 24 h) and immediately quenched with acetonitrile (200 µl). Blank samples were prepared by mixing saliva (100 µl) with acetonitrile (200 µl). Centrifugation (3,000 rpm, 5 min) of the quenched samples afforded clear supernatants which were transferred to 96 well U-bottom polypropylene plates (Greiner Bio-One, Germany). Analyte quantifications were performed on a Jasco HPLC system equipped with a UV detector and an RP-18 column (Chromolith® Performance RP-18e, 100x4.6 mm) using the gradients listed in Table 4. Samples that gave rise to asymmetric peaks inadequate for quantification were diluted (1:1) with H2O (+0.1 % TFA). The injection volume was 40 µl and the flow was set to 1.0 mL/min. UV detection was performed at 286 nm. […] Table 4: HPLC settings for quantitative analysis of saliva samples.

Data set [3] is described as follows: Drug release kinetics (prodrug cleavage) in human blood plasma. Conditions: for half-life: 10 % human plasma in PBS, 50 µM; for half-life / half-life at 50 µM: 37 °C; for half-life at 50 µM: 100 % pooled human blood plasma; for half-life at 50 µM / t1/2 at 37 °C and [prodrug]0 = 50 µM, 100 % Human Plasma: 100 % human plasma. The data set is classed as in vitro ADME. The protocol:
Pooled human blood plasma (Biowest, France) and sterile Dulbecco's phosphate buffered saline (PBS) pH 7.3 (Sigma-Aldrich, Germany) were used for all experiments. The blood plasma was aliquoted upon receipt and stored at -20 °C. 10 % solutions were prepared by thawing a plasma aliquot at 2-8 °C, distributing it into plastic vials and diluting with the appropriate volume of sterile PBS. The 10 % and 100 % plasma aliquots were stored at -20 °C and thawed at 2-8 °C directly before the assay was performed. In a thermoblock, a plasma aliquot and 10 µl of a 5 mM prodrug solution in DMSO were prewarmed to 37 °C for 10 min in separate plastic vials. Then, 1000 µl of the prewarmed plasma sample was added to the prodrug solution, and 9×100 µl samples were withdrawn at appropriate time intervals. The enzymatic reaction was quenched by immediate mixing of the samples (100 µl) with acetonitrile (200 µl). Blank samples were prepared by mixing 10 % or 100 % plasma (100 µl) with acetonitrile (200 µl), respectively. Samples of the initial reaction mixture were prepared by adding the 5 mM prodrug solution (1 µl) to a blank sample.
Centrifugation (13,000 rpm, 3 min) of the quenched samples afforded clear supernatants which were transferred to 96 well U-bottom polypropylene plates (Greiner Bio-One, Germany). Analyte quantifications were performed on a Jasco HPLC system equipped with a UV detector and an RP-18 column (Chromolith® Performance RP-18e, 100x4.6 mm) using one of the gradients listed in Table 3. Prodrug degradation was monitored using undiluted supernatant and a 10 min chromatographic method. […] For all samples, the injection volume was 40 µL and the flow was set to 1.0 mL/min. […] Table 3: HPLC settings for quantitative analysis of plasma samples.

Molecules are shown by their SMILES. Counter-ions that a name gives are not always drawn. Marks after values point to notes of the source that are not given here.

One may read the half-life as the time in which the quantity being followed falls by half. Take `CCN(C)CCc1c[nH]c2cccc(OC(C)=O)c12` [Compound 8a, 4-Acetoxy-N-ethyl-N-methyltryptammonium fumarate, reference compound]: in the data set with HuH-7 cells, the “Cell Viability in HuH7 at 50 µM, 2 h Incubation” value (from here on “Cell Viability … 2 h Incubation”) is 88.7 ± 3.0% and the “Cell Viability in HuH7 at 50 µM, 24 h Incubation” value (“Cell Viability … 24 h Incubation” below) is 85.4 ± 3.6%. Further, in data set [1], the “R (mass retention)” value amounted to 4% and the Papp at 5 h, 200 µM was determined as 5.6 ± 0.8 ×10⁻⁶ cm/s. Moreover, the half-life at 50 µM in data set [2] was 15 to 60 min. Further, the half-life in data set [3] is 0.69 ± 0.14 min.

With `Cn1c(=O)c2c(ncn2C)n(C)c1=O` [Caffeine, reference compound], in data set [1], the “R (mass retention)” value came to 1% and the Papp at 5 h, 200 µM was 12.8 ± 0.9 ×10⁻⁶ cm/s.

As to `CCN(C)CCc1cn(C(=O)OCc2ccccc2)c2cccc(O)c12` [Compound 11, 1-Benzyloxycarbonyl-4-hydroxy-N-ethyl-N-methyltryptamine], in the data set with HuH-7 cells, the “Cell Viability … 2 h Incubation” value was 0.1 ± 0.2%; the “Cell Viability … 24 h Incubation” value was -2.1 ± 0.1%; the “toxicity for HuH-7 cells” value was “extremely toxic”. Also, in data set [3], the half-life at 50 µM is > 95 h.

On to `CCN(C)CCc1c[nH]c2cccc(OC(=O)CC(C)(C)C)c12` [Compound 8h, 4-(tert-Butylacetyl)oxy-N-ethyl-N-methyltryptammonium fumarate], for which, in the data set with HuH-7 cells, the “Cell Viability … 2 h Incubation” value is 28.7 ± 1.1% and the “Cell Viability … 24 h Incubation” value is given as 42.3 ± 25.9%. In data set [1], the “R (mass retention)” value was determined as 1% and the Papp at 5 h, 200 µM is 11.2 ± 0.8 ×10⁻⁶ cm/s. Also, in data set [3], the half-life was > 8 min.

Turning to `CCN(C)CCc1c[nH]c2cccc(OC(=O)C3CC3)c12.CCN(C)CCc1c[nH]c2cccc(OC(=O)C3CC3)c12.O=C(O)/C=C/C(=O)O` [Compound 8e, 4-(Cyclopropanecarbonyloxy)-N-ethyl-N-methyltryptammonium fumarate], in the data set on HuH-7 cells, the “Cell Viability … 2 h Incubation” value is listed as 101.2 ± 3.1% and the “Cell Viability … 24 h Incubation” value was found to be 81.7 ± 2.0%. Also, the “t1/2 at 37 °C and [prodrug]0 = 50 µM, Human Saliva” value in data set [2] is listed as > 60 min. In data set [3], the “t1/2 at 37 °C and [prodrug]0 = 50 µM, 100 % Human Plasma” value is 0.84 ± 0.11^c min.

As for `CCCC(=O)OCOc1cccc2[nH]cc(CCN(C)C)c12` [Compound 15b, 4-n-Butanoyloxymethyloxy-N,N-dimethyltryptammonium fumarate], in the data set with HuH-7 cells, the “Cell Viability … 2 h Incubation” value is on record as 90.0 ± 5.2% and the “Cell Viability … 24 h Incubation” value was determined as 79.3 ± 3.5%. Further, in data set [1], the “R (mass retention)” value is listed as 7^b % and the Pe is given as 8.1 ± 0.8^b 10^-6 cm/s. Besides, in data set [2], the half-life at 50 µM was < 15 min.

`NS(=O)(=O)c1cc(C(=O)O)c(NCc2ccco2)cc1Cl` [Furosemide, reference compound]: in the data set on HuH-7 cells, the “Cell Viability … 2 h Incubation” value stood at 121.9 ± 13.8% and the “Cell Viability … 24 h Incubation” value is recorded as 90.7 ± 1.1%. Moreover, the Pe in data set [1] is reported as -0.4 ± 0.3^c 10^-6 cm/s.

Consider `O=C1NC(=O)C(c2ccccc2)(c2ccccc2)N1` [Phenytoin, reference compound], for which, in the data set with HuH-7 cells, the “Cell Viability … 2 h Incubation” value is given as 122.9 ± 1.7% and the “Cell Viability … 24 h Incubation” value came out at 84.2 ± 2.7%. In data set [1], the “R (mass retention)” value is on record as 57% and the Papp at 5 h, 200 µM is 7.5 ± 1 ×10⁻⁶ cm/s.

Regarding `CCCC(=O)OCOc1cccc2[nH]cc(CCN(C)CC)c12` [Compound 15d, 4-n-Butanoyloxymethyloxy-N-ethyl-N-methyltryptammonium fumarate], in the data set with HuH-7 cells, the “Cell Viability … 2 h Incubation” value is reported as 85.4 ± 2.7% and the “Cell Viability … 24 h Incubation” value amounted to 80.6 ± 3.3%. Also, in data set [1], the “R (mass retention)” value is 6% and the Pe is listed as 8.0 ± 0.3 10^-6 cm/s. Further, in data set [2], the half-life at 50 µM is < 15 min.

For the compound `CCN(C)CCc1c[nH]c2cccc(OC(=O)c3ccco3)c12.CCN(C)CCc1c[nH]c2cccc(OC(=O)c3ccco3)c12.O=C(O)/C=C/C(=O)O` [Compound 8j, 4-(2-Furoyl)oxy-N-ethyl-N-methyltryptammonium fumarate], in the data set with HuH-7 cells, the “Cell Viability … 2 h Incubation” value came out at 89.6 ± 3.4% and the “Cell Viability … 24 h Incubation” value is given as 78.0 ± 2.0%. Further, the “t1/2 at 37 °C and [prodrug]0 = 50 µM, Human Saliva” value in data set [2] fell in the range of 15 to 60 min. The “t1/2 at 37 °C and [prodrug]0 = 50 µM, 100 % Human Plasma” value in data set [3] turned out to be 0.14 ± 0.01 min.

Turning to `CN(C)CCCN1c2ccccc2CCc2ccccc21` [Imipramine HCl, reference compound], in the data set with HuH-7 cells, the “Cell Viability … 2 h Incubation” value is on record as 91.1 ± 3.7% and the “Cell Viability … 24 h Incubation” value was 24.4 ± 5.3%.

In the case of `CN(C)CCc1cn(C(=O)OCc2ccccc2)c2cccc(O)c12` [Compound 10, 1-Benzyloxycarbonyl-4-hydroxy-N,N-dimethyltryptamine], in the data set on HuH-7 cells, the “Cell Viability … 2 h Incubation” value amounted to 0.1 ± 0.2%; the “Cell Viability … 24 h Incubation” value was -1.3 ± 0.1%; the “toxicity for HuH-7 cells” value was “extremely toxic”. Moreover, in data set [3], the half-life at 50 µM was > 95 h.

In the case of `CCN(C)CCc1c[nH]c2cccc(OC(=O)CC(C)C)c12` [Compound 8g, 4-(3-Methylbutanoyl)oxy-N-ethyl-N-methyltryptammonium fumarate], in the data set on HuH-7 cells, the “Cell Viability … 2 h Incubation” value is 81.7 ± 8.6% and the “Cell Viability … 24 h Incubation” value is given as 79.8 ± 4.6%. Moreover, in data set [1], the “R (mass retention)” value came out at 2% and the Papp at 5 h, 200 µM is 10.6 ± 0.8 ×10⁻⁶ cm/s. In addition, the half-life in data set [3] is > 8 min.

Regarding `CC(=O)Oc1ccccc1C(=O)O` [Acetylsalicylic acid, reference compound], in the data set with HuH-7 cells, the “Cell Viability … 2 h Incubation” value came out at 92.9 ± 3.3% and the “Cell Viability … 24 h Incubation” value was 83.8 ± 3.8%. Also, in data set [2] (both sexes), the half-life at 50 µM is > 60 min.

With `CN(C)CCc1c[nH]c2cccc(O)c12` [Psilocin 1, 4-Hydroxy-N,N-dimethyltryptamine, reference compound], in the data set on HuH-7 cells, the “Cell Viability … 2 h Incubation” value is recorded as 93.7 ± 6.3% and the “Cell Viability … 24 h Incubation” value was 72.5 ± 8.3%.

On to `CCN(C)CCc1c[nH]c2cccc(O)c12` [4-OH-MET fumarate 17, 4-Hydroxy-N-ethyl-N-methyltryptammonium fumarate, reference compound], for which, in the data set on HuH-7 cells, the “Cell Viability … 2 h Incubation” value amounted to 91.0 ± 1.7% and the “Cell Viability … 24 h Incubation” value is reported as 82.9 ± 1.3%. Moreover, in data set [1], the “R (mass retention)” value is given as 29% and the Papp at 5 h, 200 µM came out at 11 ± 1 ×10⁻⁶ cm/s.
